Data on 13 compounds can be found in ChEMBL document CHEMBL1201862, “PubChem BioAssay data set” (2004).

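96-well plates; 48 h exposure; 5 concentrations. Endpoints by linear interpolation between flanking doses. Not reached: highest tested concentration assigned. GI50 marks 50% less growth.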 Activity calls are given as the source filed them. Rule as the data show it: active = GI50 up to about 1.1 µM and inactive = higher. Bounds are passed on as bounds.

Test in all cases: NCI tumour cell line growth inhibition, 48 h
Test [1] relates to ACHN.
Test [2] relates to HL-60.
Test [3] has as its system UACC-257.
Test [4] has as its system NCI-H226.
In test [5] the test system is U-251.
Test [6] has as its system OVCAR-3.
The test system of test [7] is OVCAR-4.
Test [8] has as its system SF-295.
The test system of test [9] is UACC-62.
The test system of test [10] is HCT-15.
Test [11] has as its system Malme-3M.
Test [12] has as its system SF-268.
Test [13] concerns UO-31.
Test [14] has as its system CCRF-CEM.
Test [15] concerns OVCAR-5.
The test system of test [16] is SN12C.
The test system of test [17] is TK-10.
Test [18] concerns CAKI-1.

Regarding `O=C(NC12CC3CC(CC(C3)C1)C2)C(=O)c1c[nH]c2ccc(Cl)cc12`, the GI50 was 33.3 µM (inactive) in test [1]; 17.3 µM (inactive) in test [2]; 97.1 µM (inactive) in test [3]; 37.4 µM (inactive) in [4]; 56.5 µM (inactive) in test [5]; 13.8 µM (inactive) in test [6]. The GI50 in test [7] is 21.2 µM (inactive); in [8] it was 11.1 µM (inactive); in [9], 40.1 µM (inactive); in [10] it was 21.2 µM; in test [11], 34.9 µM (inactive); in [12], 49 µM (inactive). The GI50 is 66.4 µM (inactive) in [13], 46.3 µM (inactive) in test [14], > 100 µM (inactive) in [15] and 56.1 µM (inactive) in test [16].
With `CCOC(=O)C(Oc1ccc(OC)c2c1C(=O)CCC2)c1ccccc1` (stereo not given), the GI50 in [1] was > 100 µM (inactive); in test [2], 49 µM (inactive); in test [3], > 100 µM (inactive); in [5] it was > 100 µM (inactive); in [6], > 100 µM (inactive); in test [7], 48.9 µM (inactive). Further, the GI50 is 69.5 µM (inactive) in test [8]; 69.3 µM (inactive) in [9]; > 100 µM (inactive) in test [17]; more than 100 µM in test [10]; > 100 µM (inactive) in [18]; > 100 µM (inactive) in test [11]. Moreover, the GI50 was > 100 µM (inactive) in test [12]; 53.2 µM (inactive) in test [13]; 65.5 µM (inactive) in [14]; > 100 µM (inactive) in test [15]; > 100 µM (inactive) in test [16].
On to `C=CCC1=C2CCCCC2CCC1=O` (stereo not given), for which the GI50 in [1], in [2], in [3], in test [5], in test [6] and in test [7] was > 100 µM (inactive) each time. Moreover, the GI50 in [8] is > 100 µM (inactive); in test [9], > 100 µM (inactive); in [17] it was > 100 µM (inactive); in [10], more than 100 µM; in test [18] it was > 100 µM (inactive); in [11], > 100 µM (inactive). For the same compound, the GI50 in [12], in [13], in [14], in test [15] and in [16] was > 100 µM (inactive) each time.
For `CCN(CC)CCCNc1nccc2c(C)c3c(cc12)c1cnccc1n3C`, the GI50 in test [1] is 0.353 µM (active); in test [5], 0.367 µM (active); in [6], 0.237 µM (active); in [7], 0.0282 µM (active); in test [8], 0.206 µM (active); in [9] it was 0.891 µM (active). Moreover, the GI50 is 0.444 µM (active) in test [17]; 0.0468 µM in test [10]; 0.144 µM (active) in [18]; 0.294 µM (active) in test [12]; 0.748 µM (active) in test [13]; < 0.01 µM (active) in test [14]. In test [16], the GI50 is 0.238 µM (active).
Take `C=C(C)C1C/C=C(/C)CCCC2(CCC3=C(CC(C(=C)C)C/C=C(/C)CCC3)O2)C(=O)C1` (stereo not given): the GI50 in test [1], in test [2], in test [3], in test [4], in test [5] and in [7] was > 100 µM (inactive) throughout. Further, the GI50 in test [8] is > 100 µM (inactive); in test [9], > 100 µM (inactive); in test [17], > 100 µM (inactive); in test [10] it was more than 100 µM; in test [11] it was > 100 µM (inactive); in test [12], > 100 µM (inactive). The GI50 in test [13], in test [14] and in test [16] was > 100 µM (inactive) throughout.
Turning to `C/C(CC(=O)Nc1cccc([N+](=O)[O-])c1)=N/NC(N)=S`, the GI50 in [1], in test [2], in [3], in [4], in test [5] and in [6] was > 100 µM (inactive) throughout. Moreover, the GI50 in test [8], in test [9], in test [17], in test [11], in test [12] and in test [13] was > 100 µM (inactive) throughout. The GI50 in test [14] and in test [15] was > 100 µM (inactive) in each case.
On to `Cc1ccc(S(=O)(=O)N/N=C(\c2nc3ccc([N+](=O)[O-])cc3[nH]c2=O)C(O)c2ccc([N+](=O)[O-])cc2)cc1` (stereo not given), for which the GI50 is 35 µM (inactive) in [1]; 10 µM (inactive) in [2]; > 100 µM (inactive) in test [3]; > 100 µM (inactive) in test [5]; > 100 µM (inactive) in [6]; 68.9 µM (inactive) in [7]. The GI50 is > 100 µM (inactive) in test [8]; 85.5 µM (inactive) in test [9]; > 100 µM (inactive) in test [17]; 28.2 µM in test [10]; 97.1 µM (inactive) in test [18]; > 100 µM (inactive) in test [11]. In addition, the GI50 in [12] was 63.5 µM (inactive); in test [13], 56.9 µM (inactive); in test [14], 22.3 µM (inactive); in [15], 67.1 µM (inactive); in test [16], > 100 µM (inactive).
Turning to `CSCCC(C(=O)O)N(CC1(O)OCC(O)C(O)C1O)N=O` (stereo not given), the GI50 in test [1], in [2], in test [3], in [5], in test [6] and in [9] was > 100 µM (inactive) throughout. In addition, the GI50 in test [17], in test [11], in [13], in test [14] and in [15] was > 100 µM (inactive) throughout.
As for `CN1C(c2ccccc2)CS(=O)(=O)CS1(=O)=O` (stereo not given), the GI50 is > 100 µM (inactive) in test [1]; > 100 µM (inactive) in test [3]; > 100 µM (inactive) in [5]; 30.1 µM (inactive) in test [6]; > 100 µM (inactive) in test [7]; > 100 µM (inactive) in test [8]. For the same compound, the GI50 in [9] is > 100 µM (inactive); in test [17], > 100 µM (inactive); in test [10] it was more than 100 µM; in test [18], > 100 µM (inactive); in test [11], > 100 µM (inactive); in test [12] it was > 100 µM (inactive). Further, the GI50 in test [13], in test [15] and in [16] was > 100 µM (inactive) in each case.
For `O=C1c2ccccc2C(=O)c2cc3c(cc21)C[S+]([O-])C3`, the GI50 in test [1], in [2], in test [3], in test [5], in test [6] and in test [7] was > 100 µM (inactive) in each case. The GI50 in [8] is > 100 µM (inactive); in test [9], > 100 µM (inactive); in test [17] it was > 100 µM (inactive); in [10] it was more than 10 µM; in test [18], > 100 µM (inactive); in [11], > 100 µM (inactive). Besides, the GI50 was > 100 µM (inactive) in test [12]; > 100 µM (inactive) in test [13]; > 100 µM (inactive) in test [14]; > 100 µM (inactive) in [15]; 20 µM (inactive) in test [16].
As for `FC(F)(F)c1ccc2nc(Nc3ccc(Cl)c(Cl)c3)c(-c3ccccc3)nc2c1`, the GI50 in test [1] is 40.3 µM (inactive); in test [2], 8.57 µM (inactive); in [3], 85.5 µM (inactive); in test [4], > 100 µM (inactive); in test [5] it was 7.16 µM (inactive); in test [6] it was 37.5 µM (inactive). Moreover, the GI50 in test [8] is 18.7 µM (inactive); in [17] it was 73.1 µM (inactive); in [10] it was 0.659 µM; in test [11], > 100 µM (inactive); in test [12], 14.6 µM (inactive); in [13], > 100 µM (inactive). In addition, the values for the GI50 in test [14], in test [15] and in [16] were 30.5 µM (inactive), > 100 µM (inactive) and 75.2 µM (inactive), respectively.
Regarding `Clc1cc(Cl)cc(Nc2nc3ccccc3nc2-c2cccs2)c1`, the GI50 in [1] is 19.4 µM (inactive); in test [2] it was 25.8 µM (inactive); in [3], 23.7 µM (inactive); in test [4], 40 µM (inactive); in test [5], > 10 µM (inactive); in [6] it was 29.1 µM (inactive). The GI50 in test [8] was 22.1 µM (inactive); in test [9], > 10 µM (inactive); in test [17], 37.9 µM (inactive); in [10], more than 100 µM; in test [11], 39 µM (inactive); in test [12] it was 34 µM (inactive). The GI50 is 42.6 µM (inactive) in test [13], > 100 µM (inactive) in test [14], 83.4 µM (inactive) in test [15] and 54.3 µM (inactive) in [16].
For `CC(=O)NC(CCCCNC(=O)N(C)N=O)C(=O)NCc1ccccc1` (stereo not given), the GI50 in test [1], in test [3], in [4], in test [5], in [6] and in [7] was > 100 µM (inactive) throughout. The GI50 in test [8] was > 100 µM (inactive); in [9], > 100 µM (inactive); in [17] it was > 100 µM (inactive); in test [10], more than 100 µM; in [18], > 100 µM (inactive); in test [11], > 100 µM (inactive). Moreover, the GI50 in test [12], in test [13], in test [14], in test [15] and in [16] was > 100 µM (inactive) throughout.
